According to ChEMBL document CHEMBL4130521, “Artificial Macrocycles as Potent p53-MDM2 Inhibitors” (ACS Med Chem Lett, 2017):

Molecular target: E3 ubiquitin-protein ligase Mdm2 (Homo sapiens, UniProt Q00987)
Sequence (Q00987 whole entry): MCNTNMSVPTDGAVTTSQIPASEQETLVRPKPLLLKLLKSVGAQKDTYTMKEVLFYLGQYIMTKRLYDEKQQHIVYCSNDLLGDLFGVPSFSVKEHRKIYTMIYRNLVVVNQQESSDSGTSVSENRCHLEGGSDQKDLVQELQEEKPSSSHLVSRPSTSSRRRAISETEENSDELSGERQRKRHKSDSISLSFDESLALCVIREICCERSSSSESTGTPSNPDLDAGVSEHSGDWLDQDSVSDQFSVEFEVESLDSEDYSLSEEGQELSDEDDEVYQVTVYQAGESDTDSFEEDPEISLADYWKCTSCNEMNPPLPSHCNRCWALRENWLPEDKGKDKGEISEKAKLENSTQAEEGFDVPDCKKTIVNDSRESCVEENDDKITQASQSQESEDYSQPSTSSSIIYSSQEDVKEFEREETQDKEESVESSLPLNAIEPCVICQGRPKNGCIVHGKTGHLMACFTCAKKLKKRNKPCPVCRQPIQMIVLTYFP

SMILES | Ki
O=C(O)c1[nH]c2cc(Cl)ccc2c1C1C(=O)NCCCCCCCCCCCCCC(=O)N1Cc1ccc(Cl)cc1 (stereo not drawn) | Not Active
CCOC(=O)c1[nH]c2cc(Cl)ccc2c1C1C(=O)NCCCCCCCCCCCCCCCCCCCC(=O)N1Cc1ccc(OCc2ccc(Cl)c(Cl)c2)cc1 (stereo not drawn) | Not Active
O=C(O)c1[nH]c2cc(Cl)ccc2c1C1C(=O)NCCCCCCCCCCCCCC(=O)N1Cc1ccc(F)cc1 (stereo not drawn) | Not Active
